In PubChem BioAssay AID1288 (Columbia University Molecular Screening Center, 2008):
Activity calls are given as the source filed them. How the calls were made is not given here.

Assay: E-selectin induction blockers, endothelial cells – imaging, retest plus dose response, cell count, confirmation (AID 1288);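 further: 0% = stimulated vehicle wells and 100% = unstimulated vehicle wells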
Conditions: human endothelial cells, TNFa-induced E-selectin, imaging; at 2 µM; stronger effect = higher value

**Q.** For `COc1ccc2cc(CN(CCO)C(=O)c3ccccc3F)c(=O)[nH]c2c1`, which inhibition is on record?
**A.** The inhibition was 12.6% (inactive).

**Q.** Which inhibition does the source give for `Cn1cc([N+](=O)[O-])c(C(=O)Nc2ccc(Br)cn2)n1` here?
**A.** Its inhibition is 7.96% (inactive).

**Q.** For `O=C(NCc1ccccc1)N1CCN(c2ccc(Cl)c(Cl)c2)CC1`, which inhibition is on record?
**A.** Its inhibition is 15.4% (inactive).

**Q.** For `O=C(Cn1cc(C(=O)C(F)(F)F)c2cc(Br)ccc21)N1CCOCC1`, which inhibition is on record?
**A.** The inhibition was 7.56% (inactive).

**Q.** Which inhibition does the source give for `O=c1cc(-c2ccc(F)cc2)oc2ccccc12` here?
**A.** Its inhibition is 0.15% (inactive).

**Q.** With `CC(=O)Nc1ccc(OCCF)cc1` as the compound, how does the inhibition read?
**A.** The inhibition was 0.31% (inactive).

**Q.** Which inhibition does the source give for `COc1ccc(S(=O)(=O)Cc2ccc(C(=O)N3CCOCC3)o2)cc1` here?
**A.** The inhibition was 26.4% (inactive).

**Q.** For `CCOC(=O)C(CC)n1nc(C)n2c(cc3sccc32)c1=O` (stereo unspecified), which inhibition is on record?
**A.** The inhibition was 16.1% (inactive).

**Q.** For `N#Cc1cccc(-n2c(-c3ccccc3)nnc2-c2ccccc2)c1C#N`, which inhibition is on record?
**A.** The inhibition was 4.7% (inactive).

**Q.** Which inhibition does the source give for `CCOCc1nnc(NC(=O)CCc2ccccc2)s1` here?
**A.** Its inhibition is 9.8% (inactive).

**Q.** With `COc1cccc(/C=C/C(=O)OCC(=O)Nc2ccc(Cl)c(S(=O)(=O)N(C)C)c2)c1` as the compound, how does the inhibition read?
**A.** Its inhibition is 2.19% (inactive).

**Q.** Which inhibition does the source give for `O=C(O)CSC1c2ccccc2C(=O)N1Cc1ccccc1` (stereo unspecified) here?
**A.** The inhibition was 2.25% (inactive).

**Q.** For `O=C(Nc1nnc(C2CC2)s1)c1cc(-c2ccccc2)nn1-c1ccccc1`, which inhibition is on record?
**A.** Its inhibition is 6.68% (inactive).

**Q.** With `Cc1ccc(C(C)n2cc(C(=O)NCCN3CCN(C)CC3)nn2)cc1` (stereo unspecified) as the compound, how does the inhibition read?
**A.** The inhibition was 22.4% (inactive).

**Q.** For `CCOC(=O)C1CCCN(C(=O)COC(=O)c2cc(=O)c3ccccc3o2)C1` (stereo unspecified), which inhibition is on record?
**A.** Its inhibition is 3.09% (inactive).

**Q.** Which inhibition does the source give for `COc1ccc(CCNC(=O)COc2ncnc3cc([N+](=O)[O-])ccc23)cc1` here?
**A.** Its inhibition is 15.8% (inactive).

**Q.** For `CCOc1ccc(NCc2nc3ccccc3n2CCOc2ccccc2)cc1`, which inhibition is on record?
**A.** The inhibition was 11.6% (inactive).

**Q.** For `O=C(COC(=O)CCc1ccc(S(=O)(=O)N2CCOCC2)cc1)NC1CCCC1`, which inhibition is on record?
**A.** Its inhibition is 2.85% (inactive).

**Q.** For `CCN(CC)c1ccc(NC(=O)COC(=O)/C=C/c2nc3ccccc3s2)cc1`, which inhibition is on record?
**A.** Its inhibition is 15.5% (inactive).

**Q.** Which inhibition does the source give for `NC(=O)C1CCCN(C(=S)Nc2cccc3ccccc23)C1` (stereo unspecified) here?
**A.** Its inhibition is 9.37% (inactive).

**Q.** Which inhibition does the source give for `COc1ccc(OCC(=O)N2CCN(Cc3c[nH]c4ccccc34)CC2)cc1` here?
**A.** Its inhibition is -1.94% (inactive).

**Q.** Which inhibition does the source give for `Cc1nnc(SCC(=O)N2CC(=O)Nc3ccccc32)n1C` here?
**A.** Its inhibition is 41% (inactive).

**Q.** Which inhibition does the source give for `c1ccc(Nc2nc3ccccc3n3cnnc23)cc1` here?
**A.** The inhibition was 6.89% (inactive).

**Q.** For `O=C(CSc1ccccn1)N/N=C/c1ccccc1[N+](=O)[O-]`, which inhibition is on record?
**A.** Its inhibition is 5.02% (inactive).

**Q.** For `c1ccc(-n2c(Sc3cnccn3)nnc2-c2cccs2)cc1`, which inhibition is on record?
**A.** Its inhibition is 8.66% (inactive).

**Q.** Which inhibition does the source give for `COc1cccc(-n2c(SC3CCOC3=O)nc3ccccc3c2=O)c1` (stereo unspecified) here?
**A.** Its inhibition is 27.9% (inactive).

**Q.** Which inhibition does the source give for `CCOC(=O)C1C(=O)CC(C)(O)C(C(=O)OCC)C1c1ccccc1` (stereo unspecified) here?
**A.** Its inhibition is -2.22% (inactive).

**Q.** With `CCN1C(=O)c2cccc3c(NC(=O)c4cccc(N5C(=O)CCC5=O)c4)ccc1c23` as the compound, how does the inhibition read?
**A.** Its inhibition is 0.82% (inactive).

**Q.** For `CS(=O)(=O)N1CCc2cc(-c3csc(NC(=O)Cc4cccs4)n3)ccc21`, which inhibition is on record?
**A.** The inhibition was 11.6% (inactive).

**Q.** For `O=C(Nc1cc2ccccc2oc1=O)c1ccccc1`, which inhibition is on record?
**A.** The inhibition was 7.06% (inactive).

**Q.** For `O=C(/C=C/Nc1cccc(C(F)(F)F)c1)c1ccc(Oc2ncccn2)cc1`, which inhibition is on record?
**A.** Its inhibition is 18% (inactive).

**Q.** With `COc1ccc(-c2n[nH]c(C(F)(F)F)c2-c2cc3ccccc3o2)c(O)c1` as the compound, how does the inhibition read?
**A.** Its inhibition is 3.2% (inactive).

**Q.** Which inhibition does the source give for `Clc1ccc(Nc2ccc(-n3ccnc3)nn2)cc1Cl` here?
**A.** Its inhibition is 11.7% (inactive).

**Q.** Which inhibition does the source give for `S=C(NCc1cccs1)Nc1cccc(Cl)c1Cl` here?
**A.** The inhibition was 8.76% (inactive).

**Q.** With `COc1ccccc1C(=O)NC(CCSC)C(=O)OCC(=O)NC(=O)NCc1ccco1` (stereo unspecified) as the compound, how does the inhibition read?
**A.** Its inhibition is 28% (inactive).

**Q.** For `Cn1c(CCNC(=O)C2CCCCC2)nc2cc(NC(=O)c3cccs3)ccc21`, which inhibition is on record?
**A.** The inhibition was 3.87% (inactive).

**Q.** Which inhibition does the source give for `COc1ccc(C(=O)CN2C(=O)NC3(CCCc4ccccc43)C2=O)cc1OC` (stereo unspecified) here?
**A.** The inhibition was 7.22% (inactive).

**Q.** Which inhibition does the source give for `CCOC(=O)N(c1ccccc1)P1(=S)OCCO1` here?
**A.** Its inhibition is 10.4% (inactive).

**Q.** For `O=S(=O)(Nc1ccccn1)c1ccc(Cl)c2ccccc12`, which inhibition is on record?
**A.** The inhibition was 9.42% (inactive).

**Q.** For `Cc1ccccc1-n1ccnc1SCC(=O)O`, which inhibition is on record?
**A.** The inhibition was 23% (inactive).

**Q.** For `CCOc1cc2[nH]c(=O)n(CCCN3CCCC3=O)c(=O)c2cc1OCC`, which inhibition is on record?
**A.** Its inhibition is 17% (inactive).

**Q.** Which inhibition does the source give for `O=C(NN=C1CCN(Cc2ccccc2)CC1)c1ccccc1` here?
**A.** The inhibition was 9.36% (inactive).

**Q.** With `COc1ccc(C(=O)NCCNC(C)=O)cc1S(=O)(=O)NCc1ccc(Cl)cc1` as the compound, how does the inhibition read?
**A.** The inhibition was 14.8% (inactive).

**Q.** With `CCCCCn1c(CN2CCN(Cc3ccccc3)CC2)nc2c1c(=O)n(C)c(=O)n2C` as the compound, how does the inhibition read?
**A.** Its inhibition is 2.55% (inactive).

**Q.** For `CC(C)C(=O)Nc1cc(=O)[nH]c2ncnn12`, which inhibition is on record?
**A.** Its inhibition is 10.9% (inactive).

**Q.** With `CCC(C)Nc1nc(OC(C(F)(F)F)C(F)(F)F)nc(OC(C(F)(F)F)C(F)(F)F)n1` (stereo unspecified) as the compound, how does the inhibition read?
**A.** Its inhibition is 9.28% (inactive).

**Q.** For `Cn1nnnc1SCC(=O)Nc1cccc([N+](=O)[O-])c1`, which inhibition is on record?
**A.** Its inhibition is 2.78% (inactive).

**Q.** Which inhibition does the source give for `N#CC(C#N)=C/C(C#N)=C(/N)N1CCN(c2ccc(Cl)cc2)CC1` here?
**A.** The inhibition was 6.82% (inactive).

**Q.** Which inhibition does the source give for `CCN1CCN(Cc2cc(OC)c(OC)cc2[N+](=O)[O-])CC1` here?
**A.** The inhibition was 12.6% (inactive).

**Q.** For `COc1cc(CC(=O)Oc2ccc3c(c2)OCO3)cc(OC)c1OC`, which inhibition is on record?
**A.** Its inhibition is 32.5% (inactive).

**Q.** With `O=c1cc(C(F)F)oc2c1ccc1ccccc12` as the compound, how does the inhibition read?
**A.** Its inhibition is -6.72% (inactive).

**Q.** With `Cc1cc(NC(=O)CCc2ccc(S(=O)(=O)N3CCOCC3)cc2)n(-c2ccccc2)n1` as the compound, how does the inhibition read?
**A.** The inhibition was -9.97% (inactive).

**Q.** For `CC(C)(C)c1cc(OC(=O)c2ccncc2)ccc1O`, which inhibition is on record?
**A.** Its inhibition is 7.95% (inactive).

**Q.** Which inhibition does the source give for `O=C(C1CCN(c2nc3ccc(Br)cc3s2)CC1)N1CCC2(CC1)OCCO2` here?
**A.** The inhibition was 5.07% (inactive).

**Q.** For `Cc1ccc(C)c(NC(=O)CSc2nnc([C@@H](N)Cc3ccccc3)o2)c1`, which inhibition is on record?
**A.** The inhibition was 13.6% (inactive).

**Q.** Which inhibition does the source give for `O=c1cc(O)n(-c2ccc(F)cc2)c(=S)[nH]1` here?
**A.** Its inhibition is -0.2% (inactive).

**Q.** With `CCCCCOC(=O)Cn1c(SCC(=O)Nc2ccccc2)nc2c1c(=O)[nH]c(=O)n2C` as the compound, how does the inhibition read?
**A.** Its inhibition is -1.58% (inactive).

**Q.** With `O=C(c1cccc(F)c1)N1CCN(c2cc(N3CCCCC3)c(F)cc2[N+](=O)[O-])CC1` as the compound, how does the inhibition read?
**A.** The inhibition was 4.49% (inactive).

**Q.** For `COc1ccc(C2=NNC(c3cccs3)=Nc3ccc(OC)cc32)cc1`, which inhibition is on record?
**A.** Its inhibition is 17.8% (inactive).

**Q.** With `Cc1ccc(CNCC(O)(c2ccccc2)c2ccc(Cl)cc2)cc1` (stereo unspecified) as the compound, how does the inhibition read?
**A.** The inhibition was 5.94% (inactive).

**Q.** Which inhibition does the source give for `N#CCc1c(C#N)c(N)nc(N2CCN(c3ccc(F)cc3)CC2)c1C#N` here?
**A.** The inhibition was 4.37% (inactive).

**Q.** With `C=CCOc1c(Br)cc(CNn2nnnc2N)cc1OC` as the compound, how does the inhibition read?
**A.** Its inhibition is 3.16% (inactive).

**Q.** For `CCc1cccc(CC)c1NC(=O)COC(=O)c1cccc(-c2ccc(OC(C)=O)cc2)c1`, which inhibition is on record?
**A.** The inhibition was 1.97% (inactive).

**Q.** Which inhibition does the source give for `COc1ccc(-c2csc3ncnc(Oc4cccc5ccc(C)nc45)c23)cc1` here?
**A.** The inhibition was 5.48% (inactive).

**Q.** With `COc1ccc(S(=O)(=O)NCc2csc(-c3cccnc3)n2)cc1` as the compound, how does the inhibition read?
**A.** The inhibition was 4.07% (inactive).

**Q.** With `CCC(=O)Nc1c(-c2ccc(OC)cc2)c(=O)c2ccccc2n1C` as the compound, how does the inhibition read?
**A.** The inhibition was 6.09% (inactive).

**Q.** Which inhibition does the source give for `O=C(COc1ccc(/C=N/NC(=O)C(=O)N2CCCCCC2)cc1)Nc1ccccc1Cl` here?
**A.** Its inhibition is 8.09% (inactive).

**Q.** With `CCOc1ccc(N2CC(C(=O)NCCCN3CCOCC3)CC2=O)cc1` (stereo unspecified) as the compound, how does the inhibition read?
**A.** The inhibition was 11.2% (inactive).

**Q.** With `Cc1sc(NC(=O)c2ccco2)c(CN2CCN(c3ccccn3)CC2)c1C` as the compound, how does the inhibition read?
**A.** Its inhibition is 24.4% (inactive).

**Q.** Which inhibition does the source give for `CC(C)(C)OC(=O)NCC(=O)N1CCC(C(=O)O)CC1` here?
**A.** The inhibition was -3.45% (inactive).

**Q.** With `COc1ccccc1N1CCN(C(=O)c2ccc(Br)s2)CC1` as the compound, how does the inhibition read?
**A.** Its inhibition is 0.09% (inactive).
